Read-outs that look alike come from different tables or passages of the source. One block for each molecule: values may come before it.
Key:
[1] = test system: Isogenic HCT-116 colon cancer cell lines; assay: cells; assay type: cell-based; details: Homo sapiens, cell growth;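 also: cells grown in 96-well plates in McCoy's 5A medium with 10% FBS, exposed to compound for 4 days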
Description: Cells were seeded in 96-well flat bottom cell culture plates at a density of 2−3×10^3 cells/well with compounds and incubated for 4 days.

[2] = test system: cancer cell lines with wild-type p53 / mutated or deleted p53 (ATCC); assay: Cell growth assay (WST-8), other cancer cell lines; assay type: cell-based; details: Homo sapiens
[3] = biological target: recombinant human His-tagged MDM2 protein (residues 1-118) (Homo sapiens (Human), UniProt Q00987); assay: Fluorescence-polarization MDM2 binding assay; details: Table 19A; FP binding assay; read-out: MDM2 IC50;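 also: fluorescence polarization read after three hours of incubation in potassium phosphate buffer containing bovine gamma globulin and Triton X-100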
Sequence of recombinant human His-tagged MDM2 protein (residues 1-118) (Q00987 1-118): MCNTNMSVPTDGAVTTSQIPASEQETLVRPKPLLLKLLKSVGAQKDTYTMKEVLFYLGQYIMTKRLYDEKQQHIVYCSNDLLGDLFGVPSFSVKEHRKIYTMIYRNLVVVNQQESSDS

[4] = Pharmacokinetic studies in rats; assay type: in vivo, rat; details: for oral bioavailability / oral pharmacokinetics in rats (in words): oral dosing; for bioavailability / half-life / AUC(0-t) / Cmax / % F / T1/2: male rats
Description: Pharmacokinetic studies on MDM2 inhibitors were carried out in rat. For comparison, the MDM2 inhibitor, AT-219, was also studied.

[5] = In vitro microsomal stability, human; assay type: in vitro ADME; details: for Microsomal stability, % remaining: Human Microsome, same batch; for half-life: human, liver microsomes, human liver microsomes with NADPH
[6] = In vitro microsomal stability, rat; assay type: in vitro ADME; details: for Microsomal stability, % remaining: Rat Microsome, same batch; for microsomal stability (in words) / % of compound remaining when incubated in rat liver microsomes with NADPH: rat liver microsomes; for half-life: rat, liver microsomes, rat liver microsomes with NADPH
[7] = HCT-116, read-out: HCT-116 (p53-/-) IC50, Table 19A, HCT-116 p53-/-
[8] = HCT-116, read-out: HCT-116 (p53 wild-type) IC50, Table 19A, HCT-116 p53 wild-type
[9] = LNCaP, Table 19A, LNCAP cells, p53 wild-type, cell growth, read-out: LNCAP (p53 wild-type) IC50
[10] = PC-3, Table 19A, PC-3 cells, deleted p53, cell growth, read-out: PC-3 (deleted p53) IC50
[11] = rat, plasma, oral dose 15 mg/kg
[12] = rat, plasma, oral dose 15 mg/kg, read-out: AUC(0-t)
[13] = rat, plasma, oral dose 15 mg/kg, read-out: Cmax

- % F ([4]; oral dose 25 mg/kg): 31%
- Cmax ([4]; oral dose 25 mg/kg): 274 ± 82 ng/mL
- T1/2 ([4]; oral dose 25 mg/kg): 3.8 ± 0.5 h
- % of compound remaining when incubated in rat liver microsomes ([6]; Table 16, 0 min): 100%
- % of compound remaining when incubated in rat liver microsomes ([6]; Table 16, 4 min): 88.4%
- % of compound remaining when incubated in rat liver microsomes ([6]; Table 16, 6 min): 77.2%
- % of compound remaining when incubated in rat liver microsomes ([6]; Table 16, 10 min): 65.6%
- % of compound remaining when incubated in rat liver microsomes ([6]; Table 16, 15 min): 62.3%
- % of compound remaining when incubated in rat liver microsomes ([6]; Table 16, 30 min): 60.4%
Compound: CN1CCN(CCNC(=O)C2NC(CC(C)(C)C)C3(C(=O)Nc4cc(Cl)ccc43)C2c2cccc(Cl)c2F)CC1 (stereo not shown) [MI-126]
- oral bioavailability / oral pharmacokinetics in rats (in words) [4]: much inferior oral pharmacokinetic parameters
- microsomal stability (in words) [6]: improved rat microsomal stability over MI-219

- % F ([4]; oral dose 25 mg/kg): 44%
- AUC(0-t) ([4]; oral dose 25 mg/kg): 7207 ± 1492
- Cmax ([4]; oral dose 25 mg/kg): 1913 ± 312 ng/mL
- T1/2 ([4]; oral dose 25 mg/kg): 1.51 ± 0.12 h
- oral bioavailability / oral pharmacokinetics in rats (in words) [4]: good oral bioavailability
- % of compound remaining when incubated in rat liver microsomes ([6]; Table 16, 0 min): 100%
- % of compound remaining when incubated in rat liver microsomes ([6]; Table 16, 4 min): 63.1%
- % of compound remaining when incubated in rat liver microsomes ([6]; Table 16, 6 min): 56.6%
- % of compound remaining when incubated in rat liver microsomes ([6]; Table 16, 10 min): 44.4%
- % of compound remaining when incubated in rat liver microsomes ([6]; Table 16, 15 min): 30.9%
- % of compound remaining when incubated in rat liver microsomes ([6]; Table 16, 30 min): 30.2%
- microsomal stability (in words) [6]: inferior microsomal stability to MI-219
Compound: CC(C)(C)C[C@H]1N[C@@H](C(=O)NCCC2CCC(O)C2)[C@H](c2cccc(Cl)c2)[C@@]12C(=O)Nc1cc(Cl)c(F)cc12 (stereo partly shown) [MI-225]

- % F ([4]; oral dose 25 mg/kg): 14%
- Cmax ([4]; oral dose 25 mg/kg): 120 ± 112 ng/mL
- T1/2 ([4]; oral dose 25 mg/kg): 7.1 ± 1.8 h
- % of compound remaining when incubated in rat liver microsomes ([6]; Table 16, 0 min): 100%
- % of compound remaining when incubated in rat liver microsomes ([6]; Table 16, 4 min): 96.3%
- % of compound remaining when incubated in rat liver microsomes ([6]; Table 16, 6 min): 95.6%
- % of compound remaining when incubated in rat liver microsomes ([6]; Table 16, 10 min): 87.8%
- % of compound remaining when incubated in rat liver microsomes ([6]; Table 16, 15 min): 86.5%
- % of compound remaining when incubated in rat liver microsomes ([6]; Table 16, 30 min): 82.7%
Compound: CN1CCC(CCNC(=O)C2NC(CC(C)(C)C)C3(C(=O)Nc4cc(Cl)ccc43)C2c2cccc(Cl)c2F)CC1 (stereo not shown) [MI-122]
- oral bioavailability / oral pharmacokinetics in rats (in words) [4]: much inferior oral pharmacokinetic parameters
- microsomal stability (in words) [6]: improved rat microsomal stability over MI-219

The next lines start with the molecule.

Compound: CC(C)(C)C[C@H]1N[C@@H](C(=O)NCCC(C)(O)CO)[C@H](c2cccc(Cl)c2)[C@@]12C(=O)Nc1cc(Cl)c(F)cc12 (stereo partly shown) [MI-758]
- IC50 [1, 7]: 19.1 ± 3.6 µM
- IC50 [1, 8]: 0.6 µM
- IC50 [2, 9]: 0.6 µM
- IC50 [2, 10]: 18.7 ± 7.1 µM
- IC50 [3]: < 1 µM
- oral bioavailability / oral pharmacokinetics in rats (in words) [4]: good oral bioavailability and pharmacokinetic parameters
- bioavailability [4, 11]: 38%
- half-life [4, 11]: 1.9 ± 0.1 h
- AUC(0-t) [4, 12]: 4280 ± 2690 µg·h/mL
- Cmax [4, 13]: 1490 ± 1120 ng/mL
- Microsomal stability, % remaining ([5]; 0 min): 100.00%
- Microsomal stability, % remaining ([5]; 5 min): 95.88%
- Microsomal stability, % remaining ([5]; 10 min): 89.21%
- Microsomal stability, % remaining ([5]; 15 min): 81.61%
- Microsomal stability, % remaining ([5]; 30 min): 65.20%
- Microsomal stability, % remaining ([5]; 45 min): 54.52%
- Microsomal stability, % remaining ([5]; 60 min): 51.45%
- microsomal stability (in words) ([5]; human liver microsomes): improved stability over MI-219
- % of compound remaining when incubated in human liver microsomes with NADPH ([5]; human liver microsomes, 0 min): 100.00%
- % of compound remaining when incubated in human liver microsomes with NADPH ([5]; human liver microsomes, 5 min): 95.88%
- % of compound remaining when incubated in human liver microsomes with NADPH ([5]; human liver microsomes, 10 min): 89.21%
- % of compound remaining when incubated in human liver microsomes with NADPH ([5]; human liver microsomes, 15 min): 81.61%
- % of compound remaining when incubated in human liver microsomes with NADPH ([5]; human liver microsomes, 30 min): 65.20%
- % of compound remaining when incubated in human liver microsomes with NADPH ([5]; human liver microsomes, 45 min): 54.52%
- % of compound remaining when incubated in human liver microsomes with NADPH ([5]; human liver microsomes, 60 min): 51.45%
- half-life [5]: 0.825 h
- Microsomal stability, % remaining ([6]; 0 min): 100.00%
- Microsomal stability, % remaining ([6]; 5 min): 96.52%
- Microsomal stability, % remaining ([6]; 10 min): 92.93%
- Microsomal stability, % remaining ([6]; 15 min): 82.50%
- Microsomal stability, % remaining ([6]; 30 min): 73.32%
- Microsomal stability, % remaining ([6]; 45 min): 69.33%
- Microsomal stability, % remaining ([6]; 60 min): 66.93%
- microsomal stability (in words) [6]: improved stability over MI-219
- % of compound remaining when incubated in rat liver microsomes with NADPH ([6]; 0 min): 100.00%
- % of compound remaining when incubated in rat liver microsomes with NADPH ([6]; 5 min): 96.52%
- % of compound remaining when incubated in rat liver microsomes with NADPH ([6]; 10 min): 92.93%
- % of compound remaining when incubated in rat liver microsomes with NADPH ([6]; 15 min): 82.50%
- % of compound remaining when incubated in rat liver microsomes with NADPH ([6]; 30 min): 73.32%
- % of compound remaining when incubated in rat liver microsomes with NADPH ([6]; 45 min): 69.33%
- % of compound remaining when incubated in rat liver microsomes with NADPH ([6]; 60 min): 66.93%
- half-life [6]: 1.33 h

Compound: CC(C)(C)C[C@H]1N[C@@H](C(=O)NCC[C@H](O)CN2CC[C@@H](O)C2)[C@H](c2cccc(Cl)c2)[C@@]12C(=O)Nc1cc(Cl)c(F)cc12 [MI-519-29]
- IC50 [1, 7]: > 10 µM
- IC50 [1, 8]: < 5 µM
- IC50 [2, 9]: < 5 µM
- IC50 [2, 10]: > 10 µM
- IC50 [3]: < 1 µM
- oral bioavailability / oral pharmacokinetics in rats (in words) [4]: much inferior oral pharmacokinetic parameters
- bioavailability [4, 11]: < 1%
- half-life [4, 11]: 6.9 ± 7.5 h
- AUC(0-t) [4, 12]: 28 ± 15 µg·h/mL
- Cmax [4, 13]: 51 ± 30 ng/mL
- Microsomal stability, % remaining ([5]; 0 min): 100.00%
- Microsomal stability, % remaining ([5]; 5 min): 70.67%
- Microsomal stability, % remaining ([5]; 10 min): 56.31%
- Microsomal stability, % remaining ([5]; 15 min): 49.52%
- Microsomal stability, % remaining ([5]; 30 min): 45.48%
- Microsomal stability, % remaining ([5]; 45 min): 40.08%
- Microsomal stability, % remaining ([5]; 60 min): 35.28%
- % of compound remaining when incubated in human liver microsomes with NADPH ([5]; human liver microsomes, 0 min): 100.00%
- % of compound remaining when incubated in human liver microsomes with NADPH ([5]; human liver microsomes, 5 min): 70.67%
- % of compound remaining when incubated in human liver microsomes with NADPH ([5]; human liver microsomes, 10 min): 56.31%
- % of compound remaining when incubated in human liver microsomes with NADPH ([5]; human liver microsomes, 15 min): 49.52%
- % of compound remaining when incubated in human liver microsomes with NADPH ([5]; human liver microsomes, 30 min): 45.48%
- % of compound remaining when incubated in human liver microsomes with NADPH ([5]; human liver microsomes, 45 min): 40.08%
- % of compound remaining when incubated in human liver microsomes with NADPH ([5]; human liver microsomes, 60 min): 35.28%
- half-life [5]: 0.201 h
- Microsomal stability, % remaining ([6]; 0 min): 100.00%
- Microsomal stability, % remaining ([6]; 5 min): 93.42%
- Microsomal stability, % remaining ([6]; 10 min): 84.91%
- Microsomal stability, % remaining ([6]; 15 min): 82.81%
- Microsomal stability, % remaining ([6]; 30 min): 70.75%
- Microsomal stability, % remaining ([6]; 45 min): 71.89%
- Microsomal stability, % remaining ([6]; 60 min): 69.91%
- microsomal stability (in words) [6]: improved stability over MI-219
- % of compound remaining when incubated in rat liver microsomes with NADPH ([6]; 0 min): 100.00%
- % of compound remaining when incubated in rat liver microsomes with NADPH ([6]; 5 min): 93.42%
- % of compound remaining when incubated in rat liver microsomes with NADPH ([6]; 10 min): 84.91%
- % of compound remaining when incubated in rat liver microsomes with NADPH ([6]; 15 min): 82.81%
- % of compound remaining when incubated in rat liver microsomes with NADPH ([6]; 30 min): 70.75%
- % of compound remaining when incubated in rat liver microsomes with NADPH ([6]; 45 min): 71.89%
- % of compound remaining when incubated in rat liver microsomes with NADPH ([6]; 60 min): 69.91%
- half-life [6]: 1.02 h

Compound: CC(C)(C)C[C@H]1N[C@@H](C(=O)N[C@H]2CC[C@@H](O)C2)[C@H](c2cccc(Cl)c2)[C@@]12C(=O)Nc1cc(Cl)c(F)cc12 [MI-519-27]
- IC50 [1, 7]: > 10 µM
- IC50 [1, 8]: < 2 µM
- IC50 [2, 9]: < 2 µM
- IC50 [2, 10]: > 5 µM
- IC50 ([2]; SJSA-1, Table 19A, SJSA-1 cells, p53 wild-type, cell growth, read-out: SJSA-1 (p53 wild-type) IC50): < 3 µM
- IC50 [3]: < 1 µM
- % of compound remaining when incubated in human liver microsomes with NADPH ([5]; human liver microsomes, 0 min): 100.00%
- % of compound remaining when incubated in human liver microsomes with NADPH ([5]; human liver microsomes, 5 min): 52.96%
- % of compound remaining when incubated in human liver microsomes with NADPH ([5]; human liver microsomes, 10 min): 25.03%
- % of compound remaining when incubated in human liver microsomes with NADPH ([5]; human liver microsomes, 15 min): 11.38%
- % of compound remaining when incubated in human liver microsomes with NADPH ([5]; human liver microsomes, 30 min): 2.30%
- % of compound remaining when incubated in human liver microsomes with NADPH ([5]; human liver microsomes, 45 min): 1.42%
- % of compound remaining when incubated in human liver microsomes with NADPH ([5]; human liver microsomes, 60 min): 0.77%
- half-life [5]: 0.0833 h
- % of compound remaining when incubated in rat liver microsomes with NADPH ([6]; 0 min): 100.00%
- % of compound remaining when incubated in rat liver microsomes with NADPH ([6]; 5 min): 57.28%
- % of compound remaining when incubated in rat liver microsomes with NADPH ([6]; 10 min): 31.78%
- % of compound remaining when incubated in rat liver microsomes with NADPH ([6]; 15 min): 19.34%
- % of compound remaining when incubated in rat liver microsomes with NADPH ([6]; 30 min): 5.81%
- % of compound remaining when incubated in rat liver microsomes with NADPH ([6]; 45 min): 2.49%
- % of compound remaining when incubated in rat liver microsomes with NADPH ([6]; 60 min): 2.13%
- half-life [6]: 0.101 h
